{"source": "patent US8192962B2", "about": "“Processes for detecting toxic substances” (Daikin Industries, Ltd., priority 2001, dated 2012)", "test_system": "Energy system protein genes", "experiment": "DNA chip mRNA expression in yeast, energy system protein genes (Table 4)", "assay_type": "cell-based, Saccharomyces cerevisiae S288C", "summary_of_the_method": "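Cells were grown at 25° C. in YPD, treated at logarithmic phase for 2 h with a chemical at a concentration inhibiting growth but not causing death, and compared with untreated cultures. Labeled cDNA was hybridized to a DNA chip carrying all yeast genes, and the expression ratio was taken from scanner fluorescence.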"}
{"substance": "manganese ethylenebis(dithiocarbamate) [(8)]", "values": [{"measurement": "The level of expressed mRNA in the presence of chemical substance/The level of expressed mRNA in the absence of chemical substance", "setting": "yeast gene YJR048W", "value": 0.9}, {"measurement": "The level of expressed mRNA in the presence of chemical substance/The level of expressed mRNA in the absence of chemical substance", "setting": "yeast gene YJR121W, cells incubated two hours with the chemical substance", "value": 0.7}, {"measurement": "The level of expressed mRNA in the presence of chemical substance/The level of expressed mRNA in the absence of chemical substance", "setting": "yeast gene YJR155W", "value": 10.6}, {"measurement": "The level of expressed mRNA in the presence of chemical substance/The level of expressed mRNA in the absence of chemical substance", "setting": "yeast gene YKL016C, cells incubated two hours with the chemical substance", "value": 1.6}, {"measurement": "The level of expressed mRNA in the presence of chemical substance/The level of expressed mRNA in the absence of chemical substance", "setting": "yeast gene YKL060C, cells incubated two hours with the chemical substance", "value": 1.1}, {"measurement": "The level of expressed mRNA in the presence of chemical substance/The level of expressed mRNA in the absence of chemical substance", "setting": "yeast gene YKL141W, cells incubated two hours with the chemical substance", "value": 0.8}, {"measurement": "The level of expressed mRNA in the presence of chemical substance/The level of expressed mRNA in the absence of chemical substance", "setting": "yeast gene YKL148C, cells incubated two hours with the chemical substance", "value": 0.8}, {"measurement": "The level of expressed mRNA in the presence of chemical substance/The level of expressed mRNA in the absence of chemical substance", "setting": "yeast gene YKR009C, cells incubated two hours with the chemical substance", "value": 0.9}, {"measurement": "The level of expressed mRNA in the presence of chemical substance/The level of expressed mRNA in the absence of chemical substance", "setting": "yeast gene YKR058W, cells incubated two hours with the chemical substance, 25° C., YPD medium", "value": 1.5}, {"measurement": "The level of expressed mRNA in the presence of chemical substance/The level of expressed mRNA in the absence of chemical substance", "setting": "yeast gene YKR097W", "value": 2.5}, {"measurement": "The level of expressed mRNA in the presence of chemical substance/The level of expressed mRNA in the absence of chemical substance", "setting": "yeast gene YLL041C, cells incubated two hours with the chemical substance", "value": 0.8}, {"measurement": "The level of expressed mRNA in the presence of chemical substance/The level of expressed mRNA in the absence of chemical substance", "setting": "yeast gene YLR038C, cells incubated two hours with the chemical substance", "value": 1.4}, {"measurement": "The level of expressed mRNA in the presence of chemical substance/The level of expressed mRNA in the absence of chemical substance", "setting": "yeast gene YLR044C, cells incubated two hours with the chemical substance", "value": 0.7}, {"measurement": "The level of expressed mRNA in the presence of chemical substance/The level of expressed mRNA in the absence of chemical substance", "setting": "yeast gene YLR134W, cells incubated two hours with the chemical substance", "value": 0.8}, {"measurement": "The level of expressed mRNA in the presence of chemical substance/The level of expressed mRNA in the absence of chemical substance", "setting": "yeast gene YLR258W, cells incubated two hours with the chemical substance", "value": 0.9}, {"measurement": "The level of expressed mRNA in the presence of chemical substance/The level of expressed mRNA in the absence of chemical substance", "setting": "yeast gene YLR284C, cells incubated two hours with the chemical substance", "value": 1.2}, {"measurement": "The level of expressed mRNA in the presence of chemical substance/The level of expressed mRNA in the absence of chemical substance", "setting": "yeast gene YLR295C, cells incubated two hours with the chemical substance, 25° C., YPD medium", "value": 1.2}, {"measurement": "The level of expressed mRNA in the presence of chemical substance/The level of expressed mRNA in the absence of chemical substance", "setting": "yeast gene YLR304C, cells incubated two hours with the chemical substance", "value": 0.6}, {"measurement": "The level of expressed mRNA in the presence of chemical substance/The level of expressed mRNA in the absence of chemical substance", "setting": "yeast gene YLR345W", "value": 1.4}, {"measurement": "The level of expressed mRNA in the presence of chemical substance/The level of expressed mRNA in the absence of chemical substance", "setting": "yeast gene YLR354C, cells incubated two hours with the chemical substance", "value": 1.4}, {"measurement": "The level of expressed mRNA in the presence of chemical substance/The level of expressed mRNA in the absence of chemical substance", "setting": "yeast gene YLR377C, cells incubated two hours with the chemical substance", "value": 0.7}, {"measurement": "The level of expressed mRNA in the presence of chemical substance/The level of expressed mRNA in the absence of chemical substance", "setting": "yeast gene YLR395C, cells incubated two hours with the chemical substance", "value": 1.0}, {"measurement": "The level of expressed mRNA in the presence of chemical substance/The level of expressed mRNA in the absence of chemical substance", "setting": "yeast gene YML087C", "value": 1.3}, {"measurement": "The level of expressed mRNA in the presence of chemical substance/The level of expressed mRNA in the absence of chemical substance", "setting": "yeast gene YML120C, cells incubated two hours with the chemical substance", "value": 0.9}, {"measurement": "The level of expressed mRNA in the presence of chemical substance/The level of expressed mRNA in the absence of chemical substance", "setting": "yeast gene YML129C, cells incubated two hours with the chemical substance", "value": 1.2}, {"measurement": "The level of expressed mRNA in the presence of chemical substance/The level of expressed mRNA in the absence of chemical substance", "setting": "yeast gene YMR073C, cells incubated two hours with the chemical substance", "value": 1.1}, {"measurement": "The level of expressed mRNA in the presence of chemical substance/The level of expressed mRNA in the absence of chemical substance", "setting": "yeast gene YMR118C", "value": 1.0}, {"measurement": "The level of expressed mRNA in the presence of chemical substance/The level of expressed mRNA in the absence of chemical substance", "setting": "yeast gene YMR205C, cells incubated two hours with the chemical substance", "value": 0.7}, {"measurement": "The level of expressed mRNA in the presence of chemical substance/The level of expressed mRNA in the absence of chemical substance", "setting": "yeast gene YMR261C, cells incubated two hours with the chemical substance", "value": 0.7}, {"measurement": "The level of expressed mRNA in the presence of chemical substance/The level of expressed mRNA in the absence of chemical substance", "setting": "yeast gene YMR267W, cells incubated two hours with the chemical substance, 25° C., YPD medium", "value": 1.5}, {"measurement": "The level of expressed mRNA in the presence of chemical substance/The level of expressed mRNA in the absence of chemical substance", "setting": "yeast gene YMR323W, cells incubated two hours with the chemical substance", "value": 0.8}, {"measurement": "The level of expressed mRNA in the presence of chemical substance/The level of expressed mRNA in the absence of chemical substance", "setting": "yeast gene YNL071W", "value": 0.9}, {"measurement": "The level of expressed mRNA in the presence of chemical substance/The level of expressed mRNA in the absence of chemical substance", "setting": "yeast gene YNL202W, cells incubated two hours with the chemical substance", "value": 1.2}, {"measurement": "The level of expressed mRNA in the presence of chemical substance/The level of expressed mRNA in the absence of chemical substance", "setting": "yeast gene YNL241C", "value": 0.9}, {"measurement": "The level of expressed mRNA in the presence of chemical substance/The level of expressed mRNA in the absence of chemical substance", "setting": "yeast gene YNL331C", "value": 13.1}, {"measurement": "The level of expressed mRNA in the presence of chemical substance/The level of expressed mRNA in the absence of chemical substance", "setting": "yeast gene YOL086C, cells incubated two hours with the chemical substance", "value": 0.8}, {"measurement": "The level of expressed mRNA in the presence of chemical substance/The level of expressed mRNA in the absence of chemical substance", "setting": "yeast gene YOL165C", "value": 17.8}, {"measurement": "The level of expressed mRNA in the presence of chemical substance/The level of expressed mRNA in the absence of chemical substance", "setting": "yeast gene YOR142W, cells incubated two hours with the chemical substance", "value": 0.8}, {"measurement": "The level of expressed mRNA in the presence of chemical substance/The level of expressed mRNA in the absence of chemical substance", "setting": "yeast gene YOR178C, cells incubated two hours with the chemical substance", "value": 0.9}, {"measurement": "The level of expressed mRNA in the presence of chemical substance/The level of expressed mRNA in the absence of chemical substance", "setting": "yeast gene YOR388C, cells incubated two hours with the chemical substance", "value": 0.7}, {"measurement": "The level of expressed mRNA in the presence of chemical substance/The level of expressed mRNA in the absence of chemical substance", "setting": "yeast gene YPL031C, cells incubated two hours with the chemical substance", "value": 1.0}, {"measurement": "The level of expressed mRNA in the presence of chemical substance/The level of expressed mRNA in the absence of chemical substance", "setting": "yeast gene YPL061W, cells incubated two hours with the chemical substance", "value": 0.8}, {"measurement": "The level of expressed mRNA in the presence of chemical substance/The level of expressed mRNA in the absence of chemical substance", "setting": "yeast gene YPL088W", "value": 1.9}, {"measurement": "The level of expressed mRNA in the presence of chemical substance/The level of expressed mRNA in the absence of chemical substance", "setting": "yeast gene YPL171C", "value": 20.5}, {"measurement": "The level of expressed mRNA in the presence of chemical substance/The level of expressed mRNA in the absence of chemical substance", "setting": "yeast gene YPL240C", "value": 1.2}, {"measurement": "The level of expressed mRNA in the presence of chemical substance/The level of expressed mRNA in the absence of chemical substance", "setting": "yeast gene YPL262W, cells incubated two hours with the chemical substance", "value": 1.0}, {"measurement": "The level of expressed mRNA in the presence of chemical substance/The level of expressed mRNA in the absence of chemical substance", "setting": "yeast gene YPL275W, cells incubated two hours with the chemical substance", "value": 1.0}, {"measurement": "The level of expressed mRNA in the presence of chemical substance/The level of expressed mRNA in the absence of chemical substance", "setting": "yeast gene YPL276W, cells incubated two hours with the chemical substance", "value": 0.9}, {"measurement": "The level of expressed mRNA in the presence of chemical substance/The level of expressed mRNA in the absence of chemical substance", "setting": "yeast gene YPR048W, cells incubated two hours with the chemical substance", "value": 1.5}, {"measurement": "The level of expressed mRNA in the presence of chemical substance/The level of expressed mRNA in the absence of chemical substance", "setting": "yeast gene YPR184W, cells incubated two hours with the chemical substance", "value": 0.7}]}
